# According to US9428465B2, “Acid ceramidase inhibitors and their use as medicaments” (FONDAZIONE ISTITUTO ITALIANO DI TECHNOLOGIA, priority 2012, dated 2016):
# Assays:
# [1] = test system: human colon adenocarcinoma cell line SW403; assay: Ceramide levels in SW403 cells (lipid extraction, LC/MS); type: cell-based; details: 3 μM, 3 hrs, vs. vehicle
# Description: Lipids were extracted using a chloroform/methanol mixture (2:1 vol/vol, 3 mL) containing internal standards. The organic phases were collected, dried under nitrogen, and dissolved in methanol/chloroform (3:1 vol/vol) for LC/MS analyses.
# Ceramides were analyzed by LC/MS^n, using a 1100-LC system (Agilent Technologies) equipped with an Ion Trap XCT and interfaced with ESI (Agilent Technologies). They were separated on a Poroshell 300 SB C18 column (2.1×75 mm i.d., 5 μm; Agilent Technologies) maintained at 30° C. A linear gradient of methanol in water containing 5 mM ammonium acetate and 0.25% acetic acid (from 80% to 100% of methanol in 3 man) was applied at a flow rate of 1 mL/min. […]
# Tissue-derived ceramides were identified by comparison of their LC retention times and MS^n fragmentation patterns with those of authentic standards (Avanti Polar Lipids). Extracted ion chromatograms were used to quantify myristoyl ceramide (C140, m/z 510.5>492.5>264.3), palmitoyl ceramide (C16:0, m/z 538.5>520.3>264.3), stearoyl ceramide (C18:0 m/z 566.5>548.3>264.3), lignoceroylceramide (C24:0 m/z 650.5>632.3>264.3), nervonoylceramide (C24:1 m/z 648.5>630.3>264.3) and using lauroyl ceramide standard (m/z 482.5>464.5>264.3). […]
# SW403 cells [2] = assay: Isobolographic analysis of combined treatment of SW403 cells (ED50, trypan blue assay); type: cell-based, human
# Description: Interaction between drugs was assessed by isobolographic analysis, based on the concept of dose-equivalence which follows from the dose effect curves of the individual drugs (Tallarida R I, Interactions between drugs and occupied receptors. Pharmacol. Ther. 2007, 113, 197-209; Tallarida R J, Raffa R B, The application of drug dose equivalence in the quantitative analysis of receptor occupation and drug combinations. Pharmacol. Ther. 2010; 127, 165-174). Specifically, the individual drugs' potency and efficacy allow calculating the expected effect of a combination of the two drugs.
# In the experiment of combined treatment, isobolograms were constructed by plotting on vertical and horizontal axes the ED50 data of the single drugs measured by trypan blue assay after subcronic treatment for 72 hrs. The straight line with axial intercepts represents the isobole of additivity and allows calculating the theoretical additive dose. Synergism is indicated by an observed pair (x, y) that plots below the isobole for the specified effect, whereas sub-additivity is indicated when an observed pair (x, y) plots above the isobole.
# [3] = target: rat acid ceramidase (rAC) (Rattus norvegicus (Rat), UniProt Q6P7S1); assay: Rat acid ceramidase (rAC) enzymatic assay, LC/MS of lauric acid; type: biochemical; details: rat acid ceramidase, 100 μM N-lauroyl ceramide, pH 4.5
# Description: A lysosomal rat acid ceramidase (rAC) protein preparation was obtained from cells stably expressing rAC resuspended in 20 mM Tris HCl (pH 7.5) with 0.32 M sucrose. Samples were sonicated and centrifuged at 800×g for 15 min at 4° C. Supernatants were then centrifuged at 12,000×g for 30 min at 4° C. Pellets were re-suspended in PBS pH 7.4 and subjected to 2 freeze-thaw cycles at −80° C. The suspension was finally centrifuged at 105,000×g for 1 hr at 4° C. and the supernatant containing rAC was then used in the enzymatic assay.
# r-AC protein samples were pre-incubated with various concentrations of test compounds or vehicle control in 100 mM NaH2PO4/citrate buffer pH 4.5, 0.1% Nonidet P-40, 3 mM DTT for 30 min at 37° C. Samples were incubated with 100 μM N-lauroyl ceramide (Nu-Chek Prep, Elysian, Minn.) at 37° for 30 min. The reaction was stopped by addition of a mixture of chloroform/methanol (2:1 vol/vol) containing 1 nmol of heptadecanoic acid (HDA; NuChek Prep). The organic phases were collected, dried under nitrogen, and analyzed by LC/MS in the negative-ion mode using heptadecanoic acid (HDA) as internal standard (m/z=199 for lauric acid, m/z=269 for HDA). HDA was eluted on an XDB Eclipse C18 column isocratically at 2.2 mL/min for 1 min with a solvent mixture of 95% methanol and 5% water, both containing 0.25% acetic acid, and 5 mM ammonium acetate. The column temperature was 50° C. Electrospray ionization (ESI) was in the negative mode, capillary voltage was 4 kV, and fragmentor voltage was 100 V. Nitrogen was used as drying gas at a flow rate of 13 L/min and at a temperature of 350° C. Nebulizer pressure was set at 60 psi. We monitored [M-H]− in the selected-ion monitoring (SIM) mode using HDA as internal standard.
# Inhibition of rAC activity was calculated as a reduction of lauric acid in the samples compared to vehicle controls. Median inhibitory concentration (IC50) values were calculated by non-linear regression analysis of log [concentration]/inhibition curves using. GraphPad Prism 5 (GraphPad Software, Inc., CA, USA) applying a standard slope curve fitting.
# SW403 cells [4] = assay: SW403 cell viability, trypan blue assay; type: cell-based, human; details: prolonged (72 hrs) treatment, concentration-response, FIGS. 2A and 2B
# Description: Cells were seeded in 12- or 96-well plates in complete medium 24 hrs before treatment and then incubated for 24 hrs (single treatment) or 72 hrs (multiple treatments) with different drug concentrations in media without serum. Cell viability was then evaluated.
# The trypan blue exclusion assay is based on the principle that viable cells have intact cell membrane and can therefore exclude the trypan blue dye. Cell viability was measured after 24 hrs incubation with the drug. Cells were harvested, centrifuged at 1200 rpm for 10 min and pellets re-suspended in PBS. To evaluate viability, cells were diluted 1:1 with 0.4% trypan blue dye (Sigma), incubated for 1 min and white (viable) cells were counted with a hemacytometer.
# [5] = SW403 cells, 72 hrs, isobole of additivity, higher than the experimental values
# Sequence of rat acid ceramidase (rAC) (Q6P7S1 142-394): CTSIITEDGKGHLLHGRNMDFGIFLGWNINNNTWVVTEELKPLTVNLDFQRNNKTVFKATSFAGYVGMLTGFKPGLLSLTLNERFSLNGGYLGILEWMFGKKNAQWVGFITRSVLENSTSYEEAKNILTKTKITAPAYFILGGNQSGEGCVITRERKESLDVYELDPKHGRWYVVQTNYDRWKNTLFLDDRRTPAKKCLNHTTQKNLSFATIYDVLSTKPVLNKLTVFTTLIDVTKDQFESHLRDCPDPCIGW
# Sequence of rat acid ceramidase (rAC) (Q6P7S1 21-141): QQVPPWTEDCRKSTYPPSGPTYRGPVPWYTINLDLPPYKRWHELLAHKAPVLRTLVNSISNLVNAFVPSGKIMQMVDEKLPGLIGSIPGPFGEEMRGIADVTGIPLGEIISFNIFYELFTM
structure (smiles),measurement,setting,value
"CCCCCCNC(=O)n1cc(Br)c(=O)[nH]c1=O [Example 5, 5-bromo-N-hexyl-2,4-dioxo-pyrimidine-1-carboxamide]","levels of C14:0, C16:0 and C18:0 ceramide",[1],increased
same,theoretical dose (Th) to be used with 20 nM taxol to obtain an additive effect,SW403 cells [2]; [5],9.5 µM
same,theoretical dose (Th) to be used with 300 nM 5FU to obtain an additive effect,SW403 cells [2]; [5],14.9 µM
same,interaction with taxol in reducing viability of SW403 cells (isobologram),"SW403 cells [2]; prolonged treatment, 20 nM taxol, trypan blue ED50",synergistic effect
same,interaction with 5-fluorouracil in reducing viability of SW403 cells (isobologram),"SW403 cells [2]; prolonged treatment, 300 nM 5FU, trypan blue ED50",synergistic effect
same,IC50,[3],51 nM
same,SW403 cell viability (trypan blue assay),SW403 cells [4],reduction of the viability
